# Test results: patent US20040204384A1, “Methods for regulating hematopoietic cell differentiation with polymers containing disaccharide units” (Institut National De La Sante Et De La Recherche Medial …, priority 1999, published 2004)
# Where “and” joins values, the source holds several entries; their conditions need not be identical. Equal values may be shown once.
# Legend:
# Type in all cases: cell-based, human
# [1] = test system: AML blasts; assay: AML blast differentiation induced by HA or anti-CD44 mAbs (NBT, CD14/CD15, cytology criteria)
# Text: Leukaemic peripheral blood or bone marrow samples were taken at the time of diagnosis, after informed consent, from 36 patients suffering from acute myeloid leukaemia (AML). The diagnosis of the disease and its classification comply with French-American-British (FAB) classification criteria.
# Fresh or frozen AML cells were enriched by centrifugation according to the density gradient in the presence of Ficoll, and washed in RPMI 1640 medium containing 10% foetal calf serum (FCS). The frozen cells were thawed at ambient temperature in RPMI 1640 medium containing 50% FCS, and then washed twice in RPMI medium supplemented with 10% FCS. B and T lymphocytes were eliminated from all the samples, along with monocytes for the AML1/2 and AML3 samples. This elimination was performed by specific immunoadsorption of Dynabeads beads (Dynal, Oslo, Norway) coated with monoclonal antibodies directed against the specific surface antigens CD2 and CD19 (lymphocytes) and CD14 (monocytes), according to the manufacturer's instructions. In this way, cell suspensions containing more than 95% AML blasts were obtained.
# (§1) AML blast treatment with HA. Cell suspensions containing more than 95% AML blasts were deposited in triplicate at a rate of 2.105 cells per ml of RPMI 1640/10% FCS in tissue culture plates (Costar Corp., Cambridge, Mass.) with 96 wells each containing 150 μl of medium, and placed in incubation for 5 days in the presence of 20 μg/ml of hyaluronic acid (hHA, HA-6 or HA-12). HA was added at the specified concentrations and chondroitin sulphate was added to the negative controls. The plates were placed in an incubator at 37° C. in a humid atmosphere for […], and the cells underwent the differentiation studies as described below.
# Differentiation was detected by analysing 3 criteria: 1) the ability to produce an oxidation-reduction reaction in response to a phorbol ester: this oxidation-reduction reaction is detected with nitroblue tetrazolium NBT reduction, 2) the expression of specific antibodies for differentiation (specific CD14 for monocytes, and specific CD15 for granulocytes), and 3) specific cytological modifications. All these criteria are specific to normal differentiate granulocyte or monocyte cells.
# [2] = test system: AML blasts; assay: Nitroblue tetrazolium (NBT) reduction test
# Method: as §1
# Nitroblue tetrazolium (NBT) reduction test: The ability to reduce NBT was measured using conventional techniques. Briefly, 2.10^5 cells were suspended in 900 μl of RPMI 1640 medium and were incubated in the presence of 0.2 μg/ml of 12-O-tetradecanoylephorbol-13-acetate (TPA, Sigma) and 0.5 mg/ml of NBT (Sigma) for 30 minutes at 37° C. The reaction was stopped at 4° C., the cells were cytocentrifuged and subjected to May-Grünwald-Giemsa staining agent. The percentage of cells containing black NBT reduction deposits was determined in duplicate, under an optical microscope, after examining 300 cells.
# [3] = test system: AML blasts; assay: Flow cytometry analysis of CD14 and CD15 expression
# Method: as §1
# Flow cytometry analysis of CD14 and CD15 expression: the AML blasts were suspended at a rate of 10^5 blasts/ml of RPMI 1640 medium containing 0.02% bovine serum albumin and 0.02% […] NaN3, and were then incubated at 4° C. for 30 minutes in the presence of mAbs conjugated with fluorescein isothiocyanate (FITC), and directed against CD14 (5 μg/ml IgG2b, Coulter Immunology, Hialeah, Fla.) or directed against CD15 (1 μg/ml IgM, Becton Dickinson, San José, Calif.). The mAbs were used at saturation concentrations. The murine IgM and IgG2b conjugated with FITC were obtained from Coulter-Immunotech (Coulter-Immunotech Inc., Westbrook, Me.), and were used at a 1:50 dilution. The bonding of the mAbs directed against CD14 and CD15 was quantified by measuring, by flow cytometry, the cell fluorescence in relation to that of cells labelled with the IgG-FITC. The measurement was made using a FACSvantage (Becton Dickinson) equipped with an INNOVA70-4 argon ion laser (Coherent Radiation, Palo Alto, Calif.) set at 488 nm and operating at 500 mW. The flow cytometer was calibrated using fluorescent beads (Becton Dickinson). This measurement was made on 3000 cells.
# [4] = test system: AML blasts; assay: Cytological study (May-Grünwald-Giemsa staining)
# Method: as §1
# The cell smears, prepared in triplicate, were stained by May-Grünwald-Giemsa staining and their cytology was examined under an optical microscope.
# [5] = test system: intracellular tyrosine phosphorylations in AML blasts; assay: Protein phosphorylation analysis on tyrosine residue; settings: AML5 blasts, 6D12-FITC flow cytometry
# Method: Protein phosphorylation induction on tyrosine residue: HA-12 (50 μg/ml) was added at the time t=0 to 2.10^5 AML blasts suspended, at ambient temperature, in 200 μl of RPMI 1640 medium containing 10% FCS. At t=1 min, 5 min, 15 min and 30 min, 200 μl of Permeafix Ortho (Coulter-Immunotech Inc., Westbrook, Me.) was added to stop the phosphorylations and permeabilise the cells. After 40 minutes of incubation at ambient temperature, and three washes in PBS, the phosphorylated proteins on the tyrosine residue were labelled specifically with 6D12 mAb (used at 2 μg/ml conjugated with FITC, and the labelling intensity was measured by flow cytometry with reference to the isotype control (cells labelled with IgG1 conjugated with FITC), as described above.
# [6] = test system: M-CSF transcripts; assay: RT-PCR cytokine transcript expression study; settings: out of 3 cases, 1 hour after HA treatment
# Method: RT-PCR cytokine transcript expression study: the total RNA was extracted from 5.10^5 cells using Trizol reagent (Life Technologies, Cergy Pontoise, France), followed by a phenolchloroform extraction and isopropanol precipitation. One microgram of total RNA heated at 70° C. for 10 minutes was used as a matrix for the synthesis of the first strand of complementary DNA (cDNA), by adding reverse transcriptase and random hexamers (Life Technologies). The transcript of the glyceraldehyde phosphodehydrogenase (GADPH) housekeeping gene was used as an internal marker for the PCR reaction (0.24 kb amplification product). Equilibrated quantities of cDNA were used for the PCR amplification of the cytokine transcripts, the primers used for PCR were as follows: […]
# The PCR protocol consisted of 30 cycles of 94° C. for 1 minute, 58° C. for 1 minute and 72° C. for 1 minutes, using a thermocycler (Perkin Elmercetus, Norwalk, Conn.) For each experiment, two negative controls were subject to all the steps.
# [7] = test system: AML blasts; assay: Tyrosine phosphorylation inhibition with genistein, effect on HA-induced differentiation; settings: genistein 1 hour, then HA five days
# Method: (§2) Tyrosine phosphorylation inhibition with genistein: 2.10^5 AML blasts, suspended in 200 μl of RPMI 1640/10% FCS medium, were incubated in the presence of 50 nM/l of genistein (Calbiochem-Novabiochem, San Diego, Calif.) for 1 hour at 37° C., and then in the presence of HA for either one hour (for studies on cytokine transcript expression), or five days (for studies on differentiation).
# [8] = test system: AML blasts; assay: Trypan blue exclusion test; settings: genistein then HA
# Method: as §2
# [9] = Total number, 35 cases analysed
compound,measurement,setting,value
hyaluronic acid [HA],Number of cases of differentiation,"[1]; AML1/2, 7 cases analysed, 20 μg/ml HA, 5 days",5/7 and 5
same,Number of cases of differentiation,"[1]; AML3, 16 cases analysed, 20 μg/ml HA, 5 days",12/16 and 12
same,Number of cases of differentiation,"[1]; AML4, 4 cases analysed, 20 μg/ml HA, 5 days",3/4 and 3
same,Number of cases of differentiation,"[1]; AML5, 8 cases analysed, 20 μg/ml HA, 5 days",6/8 and 6
same,Number of cases of differentiation,[1]; [9],26
same,"Number of cases of differentiation, as % of cases analysed",[1]; [9],74%
same,cases of AML in which it was not possible to induce differentiation,[1]; all AML patients (36),9/36
same,"% NBT^+ cells, median value","[2]; AML1/2, 5 out of 7 cases",22%
same,% NBT^+ cells in the cases as high as with all-transretinoic acid,"[2]; AML3, 6 of the 12 responding cases",over 50%
same,"% NBT^+ cells, median value","[2]; AML3, 12 out of 16 cases",42%
same,"% NBT^+ cells, median value",[2]; AML4,55%
same,median % NBT^+ cells relative to controls,[2]; AML4,3 times
same,"% NBT^+ cells, median value","[2]; AML5, 6 out of 8 cases",52%
same,% NBT^+ cells (extreme values),[2]; M3 (AML3) blasts,20%-80%
same,% NBT^+ cells (extreme values),[2]; M4 (AML4) blasts,43%-90%
same,% NBT^+ cells (extreme values),[2]; M5 (AML5) blasts,32%-70%
same,"factor by which MFI values (CD14, CD15) multiplied",[3]; AML1/2,around 2
same,cases in which expression of both CD14 and CD15 increased,"[3]; AML1/2, of the 8 cases",6
same,increase of CD15 MFI values,[3]; AML3,approximately 3 fold
same,cases in which maturation was as marked as after all-transretinoic acid,"[3]; AML3, of the 12 cases",8
same,"cases in which maturation was as marked as after all-transretinoic acid, %","[3]; AML3, of the 12 cases",66%
same,number of samples in which the % of CD15^+ cells increased,"[3]; AML3, out of 16 samples",12
same,factor by which % of CD14 and CD15 positive cells multiplied,[3]; AML4,2
same,"factor by which MFI values (CD14, CD15) multiplied",[3]; AML4,3
same,dose up to which differentiation intensity (CD14 MFI) is related to the dose,"[3]; AML5 blasts, HA-12 (FIG. 3A)",up to 15 μg/ml
same,% CD15+ cells (extreme values),[3]; M1/M2 (AML1/2) blasts,22-100%
same,% CD15+ cells (extreme values),[3]; M3 (AML3) blasts,42-90%
same,% CD15^− cells median values,[3]; M3 (AML3) blasts,78%
same,CD14 MFI value,[3]; one AML5 sample with CD14 in negative controls (102 in the negative controls),up to 340 arbitrary units
same,cytological change after treatment,[4]; AML1/2 blasts,No cytological change was observed
same,cytological characteristics after treatment,"[4]; AML3 blasts, 5 days","a segmented nucleus, a low nucleo-cytoplasmic ratio, rare nucleoles, some azurophilic granulations"
same,cytological characteristics after treatment,[4]; AML5 blasts,"a decrease in the nucleus/cytoplasm ratio, a decrease in the number of nucleoles, chromatin condensation, and irregular cytoplasmic contours"
same,induction of intracellular tyrosine phosphorylations,[5],already induced after one minute of treatment
same,cases with M-CSF transcripts detected,[6]; M1/M2 AML,1
same,cases with M-CSF transcript detected,[6]; M5 AML,1
"CC1=C(/C=C/C(C)=C/C=C/C(C)=C/C(=O)O)C(C)(C)CCC1 [RA, all-transretinoic acid, reference compound]",% NBT^+ cells (extreme values),[2]; M3 (AML3) blasts,(RA: 47-90) %
O=c1c(-c2ccc(O)cc2)coc2cc(O)cc(O)c12 [genistein],effect on AML3 and AML5 differentiation induced by CD44 (HA treatment),[7],inhibits this differentiation
same,cell viability,[8],greater than 95%
